Measurements reported in ChEMBL document CHEMBL1201862, “PubChem BioAssay data set” (2004).
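1) Cells in 96-well plates. 2) Compound, 48 h, 5 concentrations. 3) Linear interpolation between surrounding doses. 4) Unreached endpoint = highest concentration. Abbreviation: GI50, concentration required for 50% inhibition of growth.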 Calls of active or inactive are those of the source. Rule as the data show it: active = GI50 up to about 1.1 µM and inactive = higher.

Tests used:
Experiment in all cases: NCI tumour cell line growth inhibition, 48 h
U-251 = test system: U-251
BT-549 = test system: BT-549
COLO 205 = test system: COLO 205
PC-3 = test system: PC-3
MDA-N = test system: MDA-N
CCRF-CEM = test system: CCRF-CEM
OVCAR-4 = test system: OVCAR-4
HCT-15 = test system: HCT-15
KM12 = test system: KM12
786-0 = test system: 786-0
MOLT-4 = test system: MOLT-4
MDA-MB-435 = test system: MDA-MB-435
SK-MEL-2 = test system: SK-MEL-2
SN12C = test system: SN12C
K562 = test system: K562
MDA-MB-231 = test system: MDA-MB-231
NCI-H460 = test system: NCI-H460
NCI-H23 = test system: NCI-H23
UACC-257 = test system: UACC-257
SNB-75 = test system: SNB-75
UACC-62 = test system: UACC-62
HOP-92 = test system: HOP-92
IGROV-1 = test system: IGROV-1
RXF 393 = test system: RXF 393
SK-MEL-5 = test system: SK-MEL-5
NCI-H522 = test system: NCI-H522
DU-145 = test system: DU-145
UO-31 = test system: UO-31
SK-MEL-28 = test system: SK-MEL-28
Malme-3M = test system: Malme-3M
ACHN = test system: ACHN
NCI-H226 = test system: NCI-H226
A498 = test system: A498
OVCAR-8 = test system: OVCAR-8
EKVX = test system: EKVX
LOX IMVI = test system: LOX IMVI
HT-29 = test system: HT-29
SW-620 = test system: SW-620
T47D = test system: T47D
SK-OV-3 = test system: SK-OV-3
MCF7 = test system: MCF7
A549 = test system: A549
SF-268 = test system: SF-268
Hs-578T = test system: Hs-578T
TK-10 = test system: TK-10
M14 = test system: M14
SF-295 = test system: SF-295
HL-60 = test system: HL-60
HCC 2998 = test system: HCC 2998
HOP-62 = test system: HOP-62
CAKI-1 = test system: CAKI-1
OVCAR-3 = test system: OVCAR-3
SF-539 = test system: SF-539
NCI/ADR-RES = test system: NCI/ADR-RES
RPMI-8226 = test system: RPMI-8226
OVCAR-5 = test system: OVCAR-5
HCT-116 = test system: HCT-116
SNB-19 = test system: SNB-19
SR = test system: SR

CC/C(Cl)=N\OC(=O)Nc1ccccc1OC(F)(F)F
GI50 (U-251): 26.4 µM (inactive)
GI50 (BT-549): 3.11 µM (inactive)
GI50 (COLO 205): 2.1 µM (inactive)
GI50 (PC-3): 18.1 µM (inactive)
GI50 (MDA-N): 8.47 µM (inactive)
GI50 (CCRF-CEM): 1.75 µM (inactive)
GI50 (OVCAR-4): 19.8 µM (inactive)
GI50 (HCT-15): 3.21 µM
GI50 (KM12): 20.6 µM (inactive)
GI50 (786-0): 10.1 µM (inactive)
GI50 (MOLT-4): 1.81 µM (inactive)
GI50 (MDA-MB-435): 19.4 µM (inactive)
GI50 (SK-MEL-2): 17.7 µM (inactive)
GI50 (SN12C): 7.05 µM (inactive)
GI50 (K562): 1.95 µM (inactive)
GI50 (MDA-MB-231): 17.1 µM (inactive)
GI50 (NCI-H460): 20.7 µM (inactive)
GI50 (NCI-H23): 20.9 µM (inactive)
GI50 (UACC-257): 17.2 µM (inactive)
GI50 (SNB-75): 19.7 µM (inactive)
GI50 (UACC-62): 17 µM (inactive)
GI50 (HOP-92): 2.39 µM (inactive)
GI50 (IGROV-1): 15.8 µM (inactive)
GI50 (RXF 393): 16.7 µM (inactive)
GI50 (SK-MEL-5): 7.38 µM (inactive)
GI50 (NCI-H522): 0.665 µM (active)
GI50 (DU-145): 18.7 µM (inactive)
GI50 (UO-31): 8.18 µM (inactive)
GI50 (SK-MEL-28): 20.1 µM (inactive)
GI50 (Malme-3M): 4.52 µM (inactive)
GI50 (ACHN): 1.91 µM (inactive)
GI50 (NCI-H226): 19.1 µM (inactive)
GI50 (A498): 19.6 µM (inactive)
GI50 (OVCAR-8): 17.7 µM (inactive)
GI50 (EKVX): 7 µM (inactive)
GI50 (LOX IMVI): 2.34 µM (inactive)
GI50 (HT-29): 21.3 µM (inactive)
GI50 (SW-620): 2.52 µM (inactive)
GI50 (T47D): 4.32 µM (inactive)
GI50 (SK-OV-3): 20.2 µM (inactive)
GI50 (MCF7): 9.12 µM (inactive)
GI50 (A549): 22.6 µM (inactive)
GI50 (SF-268): 25.2 µM (inactive)
GI50 (Hs-578T): 30.2 µM (inactive)
GI50 (TK-10): 11.6 µM (inactive)
GI50 (M14): 6.9 µM (inactive)
GI50 (SF-295): 17.2 µM (inactive)
GI50 (HL-60): 1.97 µM (inactive)
GI50 (HCC 2998): 18.6 µM (inactive)
GI50 (HOP-62): 19 µM (inactive)
GI50 (CAKI-1): 1.89 µM (inactive)
GI50 (OVCAR-3): 8.22 µM (inactive)
GI50 (SF-539): 12.4 µM (inactive)
GI50 (NCI/ADR-RES): 14.9 µM (inactive)
GI50 (RPMI-8226): 1.73 µM (inactive)
GI50 (OVCAR-5): 20.1 µM (inactive)
GI50 (HCT-116): 7.08 µM (inactive)
GI50 (SNB-19): 22.5 µM (inactive)

COc1ccc2c(c1)C(=O)C1CCC(=O)N1C2c1ccc2c(c1)OCO2 (configuration not stated)
GI50 (U-251): 15.2 µM (inactive)
GI50 (BT-549): 4.26 µM (inactive)
GI50 (COLO 205): 8.65 µM (inactive)
GI50 (PC-3): 4.2 µM (inactive)
GI50 (MDA-N): 8.32 µM (inactive)
GI50 (CCRF-CEM): 3.09 µM (inactive)
GI50 (OVCAR-4): 25.4 µM (inactive)
GI50 (HCT-15): 12.2 µM
GI50 (KM12): 8.87 µM (inactive)
GI50 (786-0): 24.8 µM (inactive)
GI50 (MOLT-4): 2.74 µM (inactive)
GI50 (MDA-MB-435): 6.21 µM (inactive)
GI50 (SK-MEL-2): 13 µM (inactive)
GI50 (SN12C): 12.1 µM (inactive)
GI50 (K562): 3.36 µM (inactive)
GI50 (MDA-MB-231): 12.2 µM (inactive)
GI50 (NCI-H460): 23.9 µM (inactive)
GI50 (NCI-H23): 15.1 µM (inactive)
GI50 (UACC-257): 16.9 µM (inactive)
GI50 (SNB-75): 14.9 µM (inactive)
GI50 (UACC-62): 13.6 µM (inactive)
GI50 (IGROV-1): 16.5 µM (inactive)
GI50 (SK-MEL-5): 11.4 µM (inactive)
GI50 (NCI-H522): 5.04 µM (inactive)
GI50 (DU-145): 18.2 µM (inactive)
GI50 (UO-31): 10.6 µM (inactive)
GI50 (SK-MEL-28): 11.3 µM (inactive)
GI50 (SR): 4.56 µM (inactive)
GI50 (Malme-3M): 4.89 µM (inactive)
GI50 (ACHN): 12.1 µM (inactive)
GI50 (NCI-H226): 15.7 µM (inactive)
GI50 (A498): 17 µM (inactive)
GI50 (OVCAR-8): 18.1 µM (inactive)
GI50 (EKVX): 20.3 µM (inactive)
GI50 (LOX IMVI): 9.59 µM (inactive)
GI50 (HT-29): 4.12 µM (inactive)
GI50 (SW-620): 5.36 µM (inactive)
GI50 (T47D): 14.2 µM (inactive)
GI50 (SK-OV-3): 26.3 µM (inactive)
GI50 (MCF7): 4.83 µM (inactive)
GI50 (A549): 21 µM (inactive)
GI50 (SF-268): 13.6 µM (inactive)
GI50 (Hs-578T): 27.2 µM (inactive)
GI50 (TK-10): 30.8 µM (inactive)
GI50 (M14): 12.9 µM (inactive)
GI50 (SF-295): 15.9 µM (inactive)
GI50 (HL-60): 2.79 µM (inactive)
GI50 (HCC 2998): 14.8 µM (inactive)
GI50 (HOP-62): 18.6 µM (inactive)
GI50 (CAKI-1): 19.7 µM (inactive)
GI50 (OVCAR-3): 3.64 µM (inactive)
GI50 (SF-539): 23 µM (inactive)
GI50 (NCI/ADR-RES): 22.7 µM (inactive)
GI50 (RPMI-8226): 2.91 µM (inactive)
GI50 (OVCAR-5): 14.9 µM (inactive)
GI50 (HCT-116): 3.67 µM (inactive)
GI50 (SNB-19): 13.8 µM (inactive)

CC(C)=C1C(=O)C[C@@]2(C)C[C@H]3OC3(C)CC/C=C(/C)CCC12 (some centres not stated)
GI50 (BT-549): 99.5 µM (inactive)
GI50 (PC-3): 25.2 µM (inactive)
GI50 (MDA-N): > 100 µM (inactive)
GI50 (CCRF-CEM): 58.7 µM (inactive)
GI50 (OVCAR-4): 90.8 µM (inactive)
GI50 (HCT-15): 75.9 µM
GI50 (MOLT-4): 35.4 µM (inactive)
GI50 (MDA-MB-435): 64 µM (inactive)
GI50 (SN12C): > 100 µM (inactive)
GI50 (K562): 50.6 µM (inactive)
GI50 (MDA-MB-231): > 100 µM (inactive)
GI50 (NCI-H460): 62.4 µM (inactive)
GI50 (NCI-H23): 91.8 µM (inactive)
GI50 (UACC-257): 50.4 µM (inactive)
GI50 (SNB-75): 80 µM (inactive)
GI50 (UACC-62): 50.5 µM (inactive)
GI50 (RXF 393): > 10 µM (inactive)
GI50 (SK-MEL-5): > 100 µM (inactive)
GI50 (NCI-H522): 27.8 µM (inactive)
GI50 (DU-145): > 100 µM (inactive)
GI50 (UO-31): 68.2 µM (inactive)
GI50 (SK-MEL-28): > 100 µM (inactive)
GI50 (SR): 70.6 µM (inactive)
GI50 (Malme-3M): > 100 µM (inactive)
GI50 (NCI-H226): 69.7 µM (inactive)
GI50 (EKVX): 48.2 µM (inactive)
GI50 (HT-29): 53.7 µM (inactive)
GI50 (T47D): 49.4 µM (inactive)
GI50 (MCF7): 71.9 µM (inactive)
GI50 (A549): 75.2 µM (inactive)
GI50 (Hs-578T): > 100 µM (inactive)
GI50 (TK-10): > 100 µM (inactive)
GI50 (HL-60): 21.8 µM (inactive)
GI50 (HCC 2998): > 100 µM (inactive)
GI50 (OVCAR-3): 56.8 µM (inactive)
GI50 (NCI/ADR-RES): 18.3 µM (inactive)
GI50 (HCT-116): 65 µM (inactive)
